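Briefly, cells in 96-well plates were exposed to five compound concentrations for 48 h, and endpoints were estimated by linear interpolation. The concentration for 50% growth inhibition is given as GI50. TGI: total growth inhibition.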
Legend:
Experiment in all cases: NCI-60 cell line screen, 48 h
786-0 renal = tested on: 786-0 renal
A498 renal = tested on: A498 renal
A549 NSCLC = tested on: A549 NSCLC
ACHN renal = tested on: ACHN renal
BT-549 breast = tested on: BT-549 breast
CAKI-1 renal = tested on: CAKI-1 renal
COLO 205 colon = tested on: COLO 205 colon
DU-145 prostate = tested on: DU-145 prostate
EKVX NSCLC = tested on: EKVX NSCLC
HCC-2998 colon = tested on: HCC-2998 colon
HCT-116 colon = tested on: HCT-116 colon
HCT-15 colon = tested on: HCT-15 colon
HL-60(TB) leukemia = tested on: HL-60(TB) leukemia
HOP-62 NSCLC = tested on: HOP-62 NSCLC
HOP-92 NSCLC = tested on: HOP-92 NSCLC
HS 578T breast = tested on: HS 578T breast
HT29 colon = tested on: HT29 colon
IGROV1 ovarian = tested on: IGROV1 ovarian
KM12 colon = tested on: KM12 colon
LOX IMVI melanoma = tested on: LOX IMVI melanoma
M14 melanoma = tested on: M14 melanoma
MALME-3M melanoma = tested on: MALME-3M melanoma
MCF7 breast = tested on: MCF7 breast
MDA-MB-231 breast = tested on: MDA-MB-231 breast
MDA-MB-435 = tested on: MDA-MB-435
MOLT-4 leukemia = tested on: MOLT-4 leukemia
NCI-H226 lung = tested on: NCI-H226 lung
NCI-H23 lung = tested on: NCI-H23 lung
NCI-H460 lung = tested on: NCI-H460 lung
NCI/ADR-RES ovarian = tested on: NCI/ADR-RES ovarian
OVCAR-3 ovarian = tested on: OVCAR-3 ovarian
OVCAR-4 ovarian = tested on: OVCAR-4 ovarian
OVCAR-5 ovarian = tested on: OVCAR-5 ovarian
OVCAR-8 ovarian = tested on: OVCAR-8 ovarian
PC-3 prostate = tested on: PC-3 prostate
RXF 393 renal = tested on: RXF 393 renal
SF-268 CNS = tested on: SF-268 CNS
SF-295 CNS = tested on: SF-295 CNS
SF-539 CNS = tested on: SF-539 CNS
SK-MEL-2 melanoma = tested on: SK-MEL-2 melanoma
SK-MEL-28 melanoma = tested on: SK-MEL-28 melanoma
SK-MEL-5 melanoma = tested on: SK-MEL-5 melanoma
SK-OV-3 ovarian = tested on: SK-OV-3 ovarian
SN12C renal = tested on: SN12C renal
SNB-19 CNS = tested on: SNB-19 CNS
SNB-75 CNS = tested on: SNB-75 CNS
SR leukemia = tested on: SR leukemia
SW-620 colon = tested on: SW-620 colon
T-47D breast = tested on: T-47D breast
TK-10 renal = tested on: TK-10 renal
U251 CNS = tested on: U251 CNS
UACC-257 melanoma = tested on: UACC-257 melanoma
UACC-62 melanoma = tested on: UACC-62 melanoma
UO-31 renal = tested on: UO-31 renal
CCRF-CEM leukemia = tested on: CCRF-CEM leukemia
K-562 leukemia = tested on: K-562 leukemia
NCI-H522 lung = tested on: NCI-H522 lung
RPMI-8226 leukemia = tested on: RPMI-8226 leukemia

## NC(=NCCCCCCN=C(N)/N=C(\N)Nc1ccc(Cl)cc1)/N=C(\N)Nc1ccc(Cl)cc1
786-0 renal
  GI50: 1.6 µM
  TGI: 5.8 µM
A498 renal
  GI50: 1.6 µM
  TGI: 6.22 µM
A549 NSCLC
  GI50: 1.05 µM
  TGI: 5.3 µM
ACHN renal
  GI50: 2.18 µM
  TGI: 8.36 µM
BT-549 breast
  GI50: 1.52 µM
  TGI: 4.24 µM
CAKI-1 renal
  GI50: 1.33 µM
  TGI: 4.79 µM
COLO 205 colon
  GI50: 0.951 µM
  TGI: 1.71 µM
DU-145 prostate
  GI50: 1.93 µM
  TGI: 6.52 µM
EKVX NSCLC
  GI50: 1.53 µM
  TGI: 8.3 µM
HCC-2998 colon
  GI50: 1.8 µM
  TGI: 6.33 µM
HCT-116 colon
  GI50: 1.74 µM
  TGI: 6.12 µM
HCT-15 colon
  GI50: 2 µM
  TGI: 9.46 µM
HL-60(TB) leukemia
  GI50: 1.1 µM
  TGI: 2.49 µM
HOP-62 NSCLC
  GI50: 1.33 µM
  TGI: 4.06 µM
HOP-92 NSCLC
  GI50: 1.41 µM
  TGI: 3.8 µM
HS 578T breast
  GI50: 1.43 µM
  TGI: 4.73 µM
HT29 colon
  GI50: 1.62 µM
  TGI: 5.18 µM
IGROV1 ovarian
  GI50: 1.28 µM
  TGI: 3.16 µM
KM12 colon
  GI50: 0.927 µM
  TGI: 1.74 µM
LOX IMVI melanoma
  GI50: 0.958 µM
  TGI: 2.19 µM
M14 melanoma
  GI50: 1.71 µM
  TGI: 6 µM
MALME-3M melanoma
  GI50: 1.1 µM
  TGI: 3.28 µM
MCF7 breast
  GI50: 1.6 µM
  TGI: 5.49 µM
MDA-MB-231 breast
  GI50: 1.42 µM
  TGI: 3.96 µM
MDA-MB-435
  GI50: 1.54 µM
  TGI: 5.94 µM
MOLT-4 leukemia
  GI50: 1.09 µM
  TGI: 2.84 µM
NCI-H226 lung
  GI50: 1.79 µM
  TGI: 9.12 µM
NCI-H23 lung
  GI50: 1.16 µM
  TGI: 3.59 µM
NCI-H460 lung
  GI50: 0.929 µM
  TGI: 1.92 µM
NCI/ADR-RES ovarian
  GI50: 4.09 µM
  TGI: 50 µM
OVCAR-3 ovarian
  GI50: 1.45 µM
  TGI: 3.55 µM
OVCAR-4 ovarian
  GI50: 1.72 µM
  TGI: 6.46 µM
OVCAR-5 ovarian
  GI50: 1.83 µM
  TGI: 6.32 µM
OVCAR-8 ovarian
  GI50: 1.67 µM
  TGI: 7.19 µM
PC-3 prostate
  GI50: 1.74 µM
  TGI: 6.38 µM
RXF 393 renal
  GI50: 1.88 µM
  TGI: 8.11 µM
SF-268 CNS
  GI50: 1.48 µM
  TGI: 4.46 µM
SF-295 CNS
  GI50: 0.966 µM
  TGI: 2.35 µM
SF-539 CNS
  GI50: 1.62 µM
  TGI: 3.98 µM
SK-MEL-2 melanoma
  GI50: 1.31 µM
  TGI: 3.18 µM
SK-MEL-28 melanoma
  GI50: 1.7 µM
  TGI: 6 µM
SK-MEL-5 melanoma
  GI50: 0.908 µM
  TGI: 1.73 µM
SK-OV-3 ovarian
  GI50: 0.916 µM
  TGI: 5.54 µM
SN12C renal
  GI50: 1.27 µM
  TGI: 5.77 µM
SNB-19 CNS
  GI50: 1.46 µM
  TGI: 5.97 µM
SNB-75 CNS
  GI50: 1.03 µM
  TGI: 2.92 µM
SR leukemia
  GI50: 0.945 µM
  TGI: 2.37 µM
SW-620 colon
  GI50: 1.54 µM
  TGI: 5.15 µM
T-47D breast
  GI50: 1.71 µM
  TGI: 7.72 µM
TK-10 renal
  GI50: 2.13 µM
  TGI: 8.9 µM
U251 CNS
  GI50: 1.07 µM
  TGI: 2.77 µM
UACC-257 melanoma
  GI50: 2.01 µM
  TGI: 7.93 µM
UACC-62 melanoma
  GI50: 1.28 µM
  TGI: 4.32 µM
UO-31 renal
  GI50: 2.61 µM
  TGI: 11 µM

## C=C1OC2OC(C)C(NC(=O)OCC(Cl)(Cl)Cl)C(OC(C)=O)C2O1 (stereo not given)
786-0 renal
  TGI: > 100 µM
A498 renal
  TGI: > 100 µM
A549 NSCLC
  TGI: > 100 µM
ACHN renal
  TGI: > 100 µM
BT-549 breast
  TGI: > 100 µM
CAKI-1 renal
  TGI: > 100 µM
CCRF-CEM leukemia
  TGI: > 100 µM
COLO 205 colon
  TGI: > 100 µM
DU-145 prostate
  TGI: > 100 µM
EKVX NSCLC
  TGI: > 100 µM
HCC-2998 colon
  TGI: > 100 µM
HCT-116 colon
  TGI: > 100 µM
HCT-15 colon
  TGI: > 100 µM
HL-60(TB) leukemia
  TGI: > 100 µM
HOP-62 NSCLC
  TGI: > 100 µM
HOP-92 NSCLC
  TGI: > 100 µM
HS 578T breast
  TGI: > 100 µM
HT29 colon
  TGI: > 100 µM
IGROV1 ovarian
  TGI: > 100 µM
K-562 leukemia
  TGI: > 100 µM
KM12 colon
  TGI: > 100 µM
LOX IMVI melanoma
  TGI: > 100 µM
M14 melanoma
  TGI: > 100 µM
MALME-3M melanoma
  TGI: > 100 µM
MCF7 breast
  TGI: > 100 µM
MDA-MB-231 breast
  TGI: > 100 µM
MDA-MB-435
  TGI: > 100 µM
MOLT-4 leukemia
  TGI: > 100 µM
NCI-H226 lung
  TGI: > 100 µM
NCI-H23 lung
  TGI: > 100 µM
NCI-H460 lung
  TGI: > 100 µM
NCI-H522 lung
  TGI: > 100 µM
NCI/ADR-RES ovarian
  TGI: > 100 µM
OVCAR-3 ovarian
  TGI: > 100 µM
OVCAR-4 ovarian
  TGI: > 100 µM
OVCAR-5 ovarian
  TGI: > 100 µM
OVCAR-8 ovarian
  TGI: > 100 µM
PC-3 prostate
  TGI: > 100 µM
RPMI-8226 leukemia
  TGI: > 100 µM
RXF 393 renal
  TGI: > 100 µM
SF-268 CNS
  TGI: > 100 µM
SF-295 CNS
  TGI: > 100 µM
SF-539 CNS
  TGI: > 100 µM
SK-MEL-28 melanoma
  TGI: > 100 µM
SK-MEL-5 melanoma
  TGI: > 100 µM
SK-OV-3 ovarian
  TGI: > 100 µM
SN12C renal
  TGI: > 100 µM
SNB-19 CNS
  TGI: > 100 µM
SR leukemia
  TGI: > 100 µM
SW-620 colon
  TGI: > 100 µM
T-47D breast
  TGI: > 100 µM
TK-10 renal
  TGI: > 100 µM
U251 CNS
  TGI: > 100 µM
UACC-257 melanoma
  TGI: > 100 µM
UACC-62 melanoma
  TGI: > 100 µM
UO-31 renal
  TGI: > 100 µM

## O=C(O)CNc1ccc2c(c1)Cc1cc(Br)ccc1-2
786-0 renal
  TGI: > 84.5 µM
A498 renal
  TGI: 85.8 µM
A549 NSCLC
  TGI: > 81.3 µM
ACHN renal
  TGI: > 100 µM
BT-549 breast
  TGI: 58.6 µM
CAKI-1 renal
  TGI: 98.4 µM
CCRF-CEM leukemia
  TGI: > 100 µM
COLO 205 colon
  TGI: > 71 µM
DU-145 prostate
  TGI: 82.4 µM
EKVX NSCLC
  TGI: 49.7 µM
HCT-116 colon
  TGI: > 49.1 µM
HCT-15 colon
  TGI: > 100 µM
HL-60(TB) leukemia
  TGI: > 100 µM
HOP-62 NSCLC
  TGI: > 67.8 µM
HOP-92 NSCLC
  TGI: > 90.7 µM
HS 578T breast
  TGI: 36.4 µM
HT29 colon
  TGI: 97.4 µM
IGROV1 ovarian
  TGI: > 100 µM
K-562 leukemia
  TGI: > 40.9 µM
KM12 colon
  TGI: 50.7 µM
LOX IMVI melanoma
  TGI: > 100 µM
M14 melanoma
  TGI: > 77.1 µM
MALME-3M melanoma
  TGI: > 67.9 µM
MCF7 breast
  TGI: > 100 µM
MDA-MB-231 breast
  TGI: > 68.9 µM
MDA-MB-435
  TGI: 45 µM
NCI-H226 lung
  TGI: > 79.3 µM
NCI-H23 lung
  TGI: 49.3 µM
NCI-H460 lung
  TGI: > 60.3 µM
NCI-H522 lung
  TGI: 56.8 µM
NCI/ADR-RES ovarian
  TGI: > 63.3 µM
OVCAR-3 ovarian
  TGI: > 100 µM
OVCAR-4 ovarian
  TGI: 87.2 µM
OVCAR-5 ovarian
  TGI: > 73.1 µM
OVCAR-8 ovarian
  TGI: > 100 µM
PC-3 prostate
  TGI: > 100 µM
RPMI-8226 leukemia
  TGI: > 95.5 µM
RXF 393 renal
  TGI: > 94.6 µM
SF-268 CNS
  TGI: > 100 µM
SF-295 CNS
  TGI: 97 µM
SF-539 CNS
  TGI: 58.4 µM
SK-MEL-2 melanoma
  TGI: > 79 µM
SK-MEL-28 melanoma
  TGI: > 100 µM
SK-MEL-5 melanoma
  TGI: 25.8 µM
SK-OV-3 ovarian
  TGI: 98.5 µM
SN12C renal
  TGI: > 69.4 µM
SNB-19 CNS
  TGI: > 84.6 µM
SNB-75 CNS
  TGI: > 89.8 µM
SR leukemia
  TGI: 1.31 µM
SW-620 colon
  TGI: > 96.8 µM
T-47D breast
  TGI: > 100 µM
TK-10 renal
  TGI: > 84.6 µM
U251 CNS
  TGI: 97 µM
UACC-257 melanoma
  TGI: 72.7 µM
UACC-62 melanoma
  TGI: 76.4 µM
UO-31 renal
  TGI: > 100 µM
